Counter-ions that a name gives are not always drawn.
What was measured:
Details in all cases: 72 h
Caco-2 [1] = experiment: cell viability relative to DMSO; higher = less toxic
Calu-3 [2] = experiment: as above
HepG2 [3] = experiment: as above
U2OS [4] = experiment: as above
Vero E6 [5] = experiment: as above
Caco-2 [6] = experiment: relative viability EC50 (midpoint between 100% and the lowest measured viability); higher = less toxic
Calu-3 [7] = experiment: as above
HepG2 [8] = experiment: as above
U2OS [9] = experiment: as above
Vero E6 [10] = experiment: as above
Caco-2 [11] = experiment: drug sensitivity score (DSS) for viability; higher = more toxic; extreme values may be limits of the assay
Calu-3 [12] = experiment: as above
HepG2 [13] = experiment: as above
U2OS [14] = experiment: as above
Vero E6 [15] = experiment: as above

SMILES | cell viability (Caco-2 [1]; 1 nM) | cell viability (Caco-2 [1]; 10 nM) | cell viability (Caco-2 [1]; 100 nM) | cell viability (Caco-2 [1]; 1000 nM) | cell viability (Caco-2 [1]; 10000 nM) | cell viability (Calu-3 [2]; 1 nM) | cell viability (Calu-3 [2]; 10 nM) | cell viability (Calu-3 [2]; 100 nM) | cell viability (Calu-3 [2]; 1000 nM) | cell viability (Calu-3 [2]; 10000 nM) | cell viability (HepG2 [3]; 1 nM) | cell viability (HepG2 [3]; 10 nM) | cell viability (HepG2 [3]; 100 nM) | cell viability (HepG2 [3]; 1000 nM) | cell viability (HepG2 [3]; 10000 nM) | cell viability (U2OS [4]; 1 nM) | cell viability (U2OS [4]; 10 nM) | cell viability (U2OS [4]; 100 nM) | cell viability (U2OS [4]; 1000 nM) | cell viability (U2OS [4]; 10000 nM) | cell viability (Vero E6 [5]; 1 nM) | cell viability (Vero E6 [5]; 10 nM) | cell viability (Vero E6 [5]; 100 nM) | cell viability (Vero E6 [5]; 1000 nM) | cell viability (Vero E6 [5]; 10000 nM) | relative viability EC50 (Caco-2 [6]) | relative viability EC50 (Calu-3 [7]) | relative viability EC50 (HepG2 [8]) | relative viability EC50 (U2OS [9]) | relative viability EC50 (Vero E6 [10]) | drug sensitivity score (Caco-2 [11]) | drug sensitivity score (Calu-3 [12]) | drug sensitivity score (HepG2 [13]) | drug sensitivity score (U2OS [14]) | drug sensitivity score (Vero E6 [15])
C=CCN1C[C@H](C)N([C@H](c2ccc(C(=O)N(CC)CC)cc2)c2cccc(O)c2)C[C@H]1C [BW-373U86] | 101% | 102% | 96.1% | 96.7% | 95.2% | 92.9% | 103% | 107% | 102% | 101% | 95.5% | 93.7% | 101% | 86.9% | 96.3% | 100% | 102% | 96% | 104% | 97.8% | 105% | 100% | 105% | 94.9% | 104% | > 10 µM | > 10 µM | > 10 µM | > 10 µM | > 10 µM | 0 | 0 | 0 | 0 | 0
CCC[C@@H]1C[C@@H](C(=O)N[C@@H]([C@H]2O[C@H](SC)[C@H](O)[C@@H](O)[C@H]2O)[C@H](C)Cl)N(C)C1 [CLINDAMYCIN HYDROCHLORIDE] | 95.6% | 95.7% | 95.3% | 108% | 108% | 100% | 96.7% | 98.9% | 102% | 102% | 103% | 93% | 104% | 100% | 97.6% | 97.6% | 102% | 99.2% | 105% | 103% | 95.3% | 89.8% | 93.8% | 91.2% | 104% | > 10 µM | > 10 µM | > 10 µM | > 10 µM | > 10 µM | 0 | 0 | 0 | 0 | 0
CCNC1(C(N)=O)CCN(c2ncnc3c2nc(-c2ccccc2Cl)n3-c2ccc(Cl)cc2)CC1 [CP-945,598] | 96.2% | 98.9% | 88.3% | 80.7% | 89.3% | 109% | 102% | 97.5% | 108% | 104% | 103% | 95.6% | 100% | 95.3% | 86.6% | 104% | 104% | 101% | 98.1% | 95.7% | 101% | 103% | 98.6% | 101% | 104% | > 10 µM | > 10 µM | > 10 µM | > 10 µM | > 10 µM | 3.1 | 0 | 0.4 | 0 | 0
S=C(S)OC1CC2CC1C1CCCC21 (stereo not given) [D609] | 100% | 99.2% | 102% | 105% | 102% | 99.3% | 102% | 104% | 103% | 98% | 103% | 98.7% | 102% | 100% | 108% | 100% | 106% | 96.3% | 102% | 96.6% | 98.7% | 98% | 102% | 96% | 98.5% | > 10 µM | > 10 µM | > 10 µM | > 10 µM | > 10 µM | 0 | 0 | 0 | 0 | 0
